In patent US20110166107A1, “METHODS AND KITS FOR DETECTING RISK FACTORS FOR DEVELOPMENT OF JAW OSTEONECROSIS AND METHODS OF TREATMENT THEREOF” (UNIVERSITY OF FLORIDA RESEARCH FOUNDATION INC., priority 2008, published 2011):

Experiment: Chart review of BONJ incidence in patients treated with bisphosphonates (UF / VAMC)
Type: in vivo, human
Conditions: outpatient bone marrow transplant clinic, all patients had myeloma; pamidronate only (total incidence 13%)
Excerpt: Medical and dental charts at the University of Florida (UF) and the associated Veterans Administration Medical Center (VAMC) were reviewed. […] There were 21 males. […] Fourteen patients had modest increases in their serum creatinine concentrations. The average number of previous chemo/radiotherapy regimens was 3.5. Nine patients had Thalidomide, 5 had Bortizomib. Primary disease status was as follows: 12 patients in clinical remission, 5 with stable disease and 10 with progressive disease. Eight patients received statin therapy and 6 had diabetes mellitus. The median length of treatment with BP before the diagnosis of BONJ was 28 months. BONJ involved the mandible in 21 patients, maxilla in 4 and both in 2 patients. The most frequent presentation was pain, swelling, and exposed bone (FIG. 1). […] The BONJ incidence differed among the 3 centers where these patients were treated. […] The incidence in the VAMC was 4.2% while the incidence in the Cancer Center clinic at UF was 1.7%. In the latter two groups, patients had mostly solid tumors. The results described herein are consistent with the reports of increased incidence of BONJ with greater duration of therapy and that myeloma patients are more likely to develop the complication than solid tumor patients.

In the case of `NCCC(O)(P(=O)(O)O)P(=O)(O)O` [pamidronate], the BONJ incidence is reported as 4%.
